Test [1] deals with T1, Peroxisome proliferator-activated receptor alpha (Homo sapiens) (UniProt Q07869).
T1 sequence (whole entry): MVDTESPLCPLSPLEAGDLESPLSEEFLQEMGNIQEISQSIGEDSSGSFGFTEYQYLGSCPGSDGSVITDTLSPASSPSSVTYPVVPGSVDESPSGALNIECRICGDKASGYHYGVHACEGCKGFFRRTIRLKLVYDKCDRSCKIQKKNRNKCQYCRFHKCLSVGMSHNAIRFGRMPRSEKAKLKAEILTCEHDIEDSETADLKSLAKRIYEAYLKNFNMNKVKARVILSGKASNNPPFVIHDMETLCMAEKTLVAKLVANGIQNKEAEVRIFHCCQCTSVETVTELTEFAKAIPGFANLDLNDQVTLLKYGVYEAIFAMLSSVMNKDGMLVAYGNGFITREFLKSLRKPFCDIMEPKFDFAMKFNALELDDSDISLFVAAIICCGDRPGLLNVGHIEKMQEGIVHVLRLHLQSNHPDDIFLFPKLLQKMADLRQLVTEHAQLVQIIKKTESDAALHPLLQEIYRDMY
Briefly: Agonist activity at human PPARalpha-Gal4 in HEK293 cells by luciferase reporter assay relative to (S)-2-{2-[1-ethyl-3-(4-trifluoro-methoxyphenyl)ureido]indan-5-ylsulfanyl}-2-methylpropionic acid. The test is classed as functional, cell-based.

The target of test [2] is T2, Peroxisome proliferator-activated receptor delta (Homo sapiens, UniProt Q03181).
T2 sequence (Q03181 whole entry): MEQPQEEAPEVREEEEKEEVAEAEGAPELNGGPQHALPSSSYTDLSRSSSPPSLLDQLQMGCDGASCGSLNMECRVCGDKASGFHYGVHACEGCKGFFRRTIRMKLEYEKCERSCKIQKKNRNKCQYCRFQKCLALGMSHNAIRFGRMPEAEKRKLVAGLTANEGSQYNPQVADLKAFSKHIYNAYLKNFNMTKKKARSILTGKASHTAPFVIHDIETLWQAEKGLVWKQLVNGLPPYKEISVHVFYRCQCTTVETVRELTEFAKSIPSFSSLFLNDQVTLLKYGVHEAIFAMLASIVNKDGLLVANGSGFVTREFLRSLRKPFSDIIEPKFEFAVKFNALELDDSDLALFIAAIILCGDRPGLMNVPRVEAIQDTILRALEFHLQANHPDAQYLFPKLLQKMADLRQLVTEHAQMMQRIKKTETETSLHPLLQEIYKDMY
Briefly: Agonist activity at human PPARdelta-Gal4 in HEK293 cells by luciferase reporter assay. Format: functional, cell-based. Background: Reporter assays use an easily measured gene product as a stand-in for the process of interest.

The target of test [3] is T3, Peroxisome proliferator-activated receptor alpha (Homo sapiens, UniProt Q07869).
T3 sequence (Q07869 whole entry): T1 sequence (whole entry)
The experiment in a line: Agonist activity at human PPARalpha-Gal4 in HEK293 cells by luciferase reporter assay. The test is classed as functional, cell-based.

Test [4] addresses T4, Peroxisome proliferator-activated receptor gamma (Homo sapiens, UniProt P37231).
T4 sequence (P37231 whole entry): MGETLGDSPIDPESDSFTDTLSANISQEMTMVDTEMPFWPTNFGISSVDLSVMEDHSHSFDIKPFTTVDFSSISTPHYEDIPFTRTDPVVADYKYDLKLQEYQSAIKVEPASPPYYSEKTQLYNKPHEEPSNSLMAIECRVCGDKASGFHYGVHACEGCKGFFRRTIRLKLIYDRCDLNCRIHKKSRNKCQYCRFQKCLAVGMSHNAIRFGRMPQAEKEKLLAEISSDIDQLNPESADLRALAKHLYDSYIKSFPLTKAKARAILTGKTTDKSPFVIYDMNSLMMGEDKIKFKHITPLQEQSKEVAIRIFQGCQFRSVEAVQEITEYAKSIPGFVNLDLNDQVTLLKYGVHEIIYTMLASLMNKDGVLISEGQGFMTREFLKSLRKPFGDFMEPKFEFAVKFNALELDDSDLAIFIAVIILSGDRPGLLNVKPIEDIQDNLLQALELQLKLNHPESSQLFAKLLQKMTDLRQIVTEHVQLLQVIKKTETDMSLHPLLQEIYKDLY
Briefly: Agonist activity at human PPARgamma-Gal4 in HEK293 cells by luciferase reporter assay. Format: functional, cell-based.

The nature of test [5]: Activity at retinoic acid receptor.
The target of test [6] is T5, Bile acid receptor (Homo sapiens) (UniProt Q96RI1).
T5 sequence (whole entry): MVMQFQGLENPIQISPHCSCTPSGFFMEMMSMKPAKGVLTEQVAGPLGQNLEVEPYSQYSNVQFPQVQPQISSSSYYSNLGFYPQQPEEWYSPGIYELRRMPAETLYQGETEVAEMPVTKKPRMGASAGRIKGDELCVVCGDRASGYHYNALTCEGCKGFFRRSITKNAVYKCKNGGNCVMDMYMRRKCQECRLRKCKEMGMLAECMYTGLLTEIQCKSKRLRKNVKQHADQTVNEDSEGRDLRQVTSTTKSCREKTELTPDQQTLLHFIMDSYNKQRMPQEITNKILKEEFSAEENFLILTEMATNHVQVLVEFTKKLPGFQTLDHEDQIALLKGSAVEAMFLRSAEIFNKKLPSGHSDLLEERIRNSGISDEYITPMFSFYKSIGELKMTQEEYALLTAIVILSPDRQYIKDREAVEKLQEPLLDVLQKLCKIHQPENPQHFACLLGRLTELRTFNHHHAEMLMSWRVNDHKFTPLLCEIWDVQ
The experiment in a line: Activity at farnesoid X receptor.

Test [7] in a line: Activity at liver X receptor.
The nature of test [8]: Activity at retinoic acid X receptor.
For test [9], the target named is T6, Glucocorticoid receptor (Homo sapiens) (UniProt P04150).
T6 sequence (whole entry): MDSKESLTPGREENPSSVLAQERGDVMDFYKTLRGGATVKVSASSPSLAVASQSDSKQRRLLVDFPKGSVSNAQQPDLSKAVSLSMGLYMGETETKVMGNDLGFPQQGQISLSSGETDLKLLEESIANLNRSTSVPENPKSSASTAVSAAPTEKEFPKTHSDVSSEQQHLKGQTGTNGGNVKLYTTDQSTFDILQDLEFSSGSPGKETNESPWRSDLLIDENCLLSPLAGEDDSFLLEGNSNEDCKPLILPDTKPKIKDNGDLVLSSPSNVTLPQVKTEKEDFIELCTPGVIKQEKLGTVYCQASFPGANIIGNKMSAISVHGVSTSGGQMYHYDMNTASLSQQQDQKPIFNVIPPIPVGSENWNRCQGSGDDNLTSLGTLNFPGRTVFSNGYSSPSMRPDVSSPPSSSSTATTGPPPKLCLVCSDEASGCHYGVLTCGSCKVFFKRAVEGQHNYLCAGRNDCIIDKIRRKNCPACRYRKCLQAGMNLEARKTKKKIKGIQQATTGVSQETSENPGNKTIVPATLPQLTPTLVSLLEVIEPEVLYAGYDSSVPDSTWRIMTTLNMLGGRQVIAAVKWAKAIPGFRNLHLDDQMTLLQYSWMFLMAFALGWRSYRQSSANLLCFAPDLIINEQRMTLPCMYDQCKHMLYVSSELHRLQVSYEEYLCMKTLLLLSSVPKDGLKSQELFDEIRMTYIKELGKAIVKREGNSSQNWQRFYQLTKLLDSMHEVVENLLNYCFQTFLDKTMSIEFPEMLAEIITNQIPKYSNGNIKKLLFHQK
Briefly: Activity at glucocorticoid receptor.

Structures are written as SMILES. Activity calls are given as the source filed them. The rule behind the calls is not given here.

In turn, `Cc1cc(OCc2nc(-c3ccc(OC(F)(F)F)cc3)ns2)ccc1OC(C)(C)C(=O)O` came in with an Efficacy in [1] of 80%.

The EC50 is the concentration giving half of the maximal effect. `Cc1cc(SCc2nc(-c3ccc(OC(F)(F)F)c(Cl)c3)ns2)ccc1OC(C)(C)C(=O)O` gave an Efficacy in [1] of 73%. In test [2], this compound came in with an EC50 of 0.003 µM.

The compound `Cc1cc(SCc2nc(-c3ccc(Cl)cc3)ns2)ccc1OC(C)(C)C(=O)O` displayed an Efficacy in [1] of 38%.

For the compound `Cc1cc(OCc2nc(-c3ccc(C(F)(F)F)c(F)c3)ns2)ccc1OC(C)(C)C(=O)O`, the EC50 in [3] was 0.086 µM. In test [1], this compound registered an Efficacy of 65%.

As to `Cc1cc(SCc2nc(-c3ccc(C(F)(F)F)cc3)ns2)ccc1OC(C)(C)C(=O)O`, the Efficacy in test [1] stood at 51%.

`Cc1ccc(-c2nsc(CSc3ccc(OC(C)(C)C(=O)O)c(C)c3)n2)cc1C`: the Efficacy in [1] came to 45%. In test [4], this compound gave a 50% effective concentration (EC50) above 3 µM.

Regarding `Cc1ccc(-c2nsc(COc3ccc(OC(C)(C)C(=O)O)c(C)c3)n2)cc1Cl`, the Efficacy in test [1] was found to be 75%.

`Cc1cc(SCc2nc(-c3ccc(Cl)cc3Cl)ns2)ccc1OC(C)(C)C(=O)O` returned an Efficacy in [1] of 33%.

In test [1], `Cc1cc(SCc2nc(-c3ccc(C(F)(F)F)c(F)c3)ns2)ccc1OC(C)(C)C(=O)O` displayed an Efficacy of 53%. The compound also yielded an EC50 in test [2] of 0.005 µM.

`Cc1cc(SCc2nc(-c3ccc(C(F)(F)F)cc3)ns2)ccc1OCC(=O)O` yielded an Efficacy in test [1] of 42%.

The compound `Cc1cc(OCc2nc(-c3ccc(Cl)c(Cl)c3)ns2)ccc1OC(C)(C)C(=O)O` showed an Efficacy in test [1] of 83%.

Take `Cc1ccc(-c2nsc(COc3ccc(OC(C)(C)C(=O)O)c(C)c3)n2)cc1C`: in test [1], the Efficacy came to 58%.

`Cc1cc(SCc2nsc(-c3ccc(OC(F)(F)F)cc3)n2)ccc1OC(C)(C)C(=O)O` yielded an Efficacy in test [1] of 47%.

In turn, `Cc1cc(SCCc2nc(-c3ccc(C(F)(F)F)cc3)ns2)ccc1OC(C)(C)C(=O)O` displayed an Efficacy in [1] of 65%.

`Cc1cc(SCc2nsc(-c3ccc(C(F)(F)F)cc3)n2)ccc1OC(C)(C)C(=O)O` showed an Efficacy in test [1] of 38%.

The compound `Cc1cc(SCCc2nc(-c3ccc(Cl)c(Cl)c3)ns2)ccc1OC(C)(C)C(=O)O` showed an Efficacy in test [1] of 71%. Besides, the EC50 in [2] was 0.009 µM; in test [4] it was 0.815 µM.

For the compound `Cc1cc(SCc2cc(-c3ccc(C(F)(F)F)cc3)sn2)ccc1OCC(=O)O`, the Efficacy in test [1] is 43%.

The compound `Cc1cc(OCc2nc(-c3ccc(C(F)(F)F)cc3)ns2)ccc1OC(C)(C)C(=O)O` yielded an Efficacy in [1] of 71%.

With `Cc1cc(OCc2nc(-c3ccc(OC(F)(F)F)c(Cl)c3)ns2)ccc1OC(C)(C)C(=O)O`, the Efficacy in [1] came to 101%.

For the compound `Cc1cc(SCc2nc(-c3ccc(OC(F)(F)F)cc3)ns2)ccc1OC(C)(C)C(=O)O`, the outcome in [5], in [6], in test [7], in [8] and in test [9] was inactive. Moreover, in test [1], the Efficacy came out at 44%.

On to `Cc1ccc(-c2nsc(CSc3ccc(OC(C)(C)C(=O)O)c(C)c3)n2)cc1Cl`, for which the EC50 in [3] amounted to 0.07 µM; in [2], 0.025 µM. In test [1], this compound returned an Efficacy of 74%.

In test [1], `Cc1cc(SCc2cc(-c3ccc(C(F)(F)F)cc3)on2)ccc1OCC(=O)O` had an Efficacy of 41%.

The compound `Cc1cc(SCc2nc(-c3ccc(OC(F)(F)F)cc3)ns2)ccc1OC1(C(=O)O)CCCC1` came in with an Efficacy in test [1] of 31%.

For `CC(C)(Oc1ccc(SCc2nc(-c3ccc(C(F)(F)F)cc3)ns2)cc1)C(=O)O`, the figures for the EC50 in test [3], in test [2] and in test [4] were 0.155 µM, 0.02 µM and above 3 µM, respectively.

Regarding `Cc1cc(SCc2cc(-c3ccc(C(F)(F)F)cc3)ns2)ccc1OCC(=O)O`, it took 1.29 µM to reach a half-maximal effect in test [3] (EC50). In test [1], this compound registered an Efficacy of 43%.

For the origin of these results see ChEMBL document CHEMBL1143875, “Synthesis and structure-activity relationships of thiadiazole-derivatives as potent and orally active peroxisome proliferator-activated receptors alpha/delta dual agonists” (Bioorg Med Chem, 2008).
